Test results reported in doi:10.1101/2025.07.08.663703, “Recruitment of Mre11 to recombination sites during meiosis” (bioRxiv, 2025).
Ends that are not written are not given here.

Tests used:
[1] = target: T1, Smt3 (Saccharomyces cerevisiae, UniProt Q12306); assay: NMR chemical shift perturbation of U-[13C,15N] Smt3 by SIM3 peptides; format: binding, yeast (S. cerevisiae); conditions: [1H,15N] HSQC, 1.2 molar equivalents of peptide, 0.3 mM U-[13C,15N] Smt3, 20 mM sodium phosphate, 20 mM NaCl, pH 6.5, 10% D2O, 298 K, 800 MHz
T1 construct: 6xHis (C); made in house; host or cells: E. coli BL21 (DE3)pLysS
Procedure: For the production of the doubly labeled U-[^13C, ^15N] […] The purification protocol remained the same as described above.
The samples contained 0.3–0.6 mM of U-[^13C,^15N] […] All NMR spectra were acquired at 298 K on a Bruker Avance III HD 800 MHz spectrometer, equipped with a TCI cryoprobe. The NMR data were processed in TopSpin 3.6 (Bruker) or NMRPipe[70] and analyzed in CCPNMR[71]. Assignments of Smt3 backbone amide resonances were taken from literature[72] and verified by 3D HNCACB, HN(CO)CACB, and ^15N-edited NOESY-HSQC spectra. […] The assigned ^1H, ^13C and ^15N chemical shifts of the free and bound Smt3 have been deposited in the Biological Magnetic Resonance Bank (http://www.bmrb.wisc.edu/) under the accession number 53209.
The NMR binding experiments were performed by an incremental addition of wild-type or mutant SIM peptides (1.2 mM stocks in the working buffer) to 0.3 mM samples of U-[^13C,^15N] Smt3, with the spectral changes monitored in [^1H,^15N] HSQC spectra acquired at each increment. The average chemical shift perturbations (Δδavg) were calculated as Δδavg = (ΔδX^2/50 + ΔδH^2/2)^0.5, where ΔδX and ΔδH are the chemical shift changes of the backbone amide nitrogens or methyl carbons (ΔδX) and protons (ΔδH) of Smt3 residues upon addition of 1.2 molar equivalents of SIM peptides, and n = 50 or 9 for the backbone amide and methyl groups, respectively.

[2] = test system: MMS-induced Mre11myc foci; assay: Immunofluorescence of MMS-induced Mre11myc foci in vegetative yeast, 1,6-hexanediol treatment; format: cell-based, Saccharomyces cerevisiae SK1; conditions: 5% 1,6-hexanediol, 4–5 minutes, spheroplasts, vegetative cells
Procedure: Following standard protocols, strains were patched on YPG plates, mated and streaked on YPD plates, and selected diploid colonies grown in liquid YPD at 30°C, 250 rpm, overnight. For meiotic synchronization, diploid cultures grown overnight in YPD were transferred to YPA (1% yeast extract, 2% peptone, 1% potassium acetate) at OD600 0.2 and grown for 12–14 hours at 30°C, 250 rpm. […]
Slides were blocked with 90% FBS, 1× PBS for 1 hour at room temperature in a humid chamber and then incubated with primary antibody (mouse mAb anti-myc, 1:200 (2276S, Cell Signaling Technology), rabbit anti-phospho H2A-S129, 1:200 (ab15083, abcam)) diluted in 3% BSA, 1× PBS in a humid chamber for 2 hours at 37°C or overnight at 4°C. Slides were washed three times with 1× PBS in a Coplin jar, were incubated with secondary antibody (goat anti-mouse IgG Alexa Fluor™ Plus 488, 1:200 (A32723, Invitrogen), donkey anti-rabbit IgG Alexa Fluor™ 546, 1:200 (A10040, Invitrogen) diluted in 3% BSA, 1× PBS in a humid chamber at 37°C for 1 hour. Slides were washed in the dark three times for 5 mins with 1× PBS, mounted with Vectashield containing DAPI (Vector Labs). Images were captured on a Zeiss Axio Observer with a 100×/1.4 NA oil immersion objective and were analyzed in ImageJ.

[3] = test system: Mer2; assay: Co-expression NiNTA pulldown of MBP-Mre11-C49 (prey) with HisSUMO-Mer2 (bait); format: binding, S. cerevisiae; conditions: co-expression in E. coli, anti-MBP elution/input signal normalized to wild type, at least seven independent samples
Source text: The vector for expression of ^MBPMre11-C49 and ^HisSUMOMer2 (pCCB1040) was based on a pET-Duet1 vector with the sequence coding for ^MBPMre11-C49 cloned within the first position (SacI site) and the sequence coding for ^HisSUMOMer2 cloned at the second position (XhoI site). The EQEK mutations and LLK mutations were introduced by PCR amplification of pCCB1040 with primers cb1561 and cb1562, and pp84 and pp85, followed by phosphorylation and self-ligation to yield plasmids pry59 and pry61, respectively.
Wild-type and mutant MBP-tagged Mre11-C49 and HisSUMO-tagged Mer2 were co-expressed in 50 mL of E. coli BL21 cultures and purified by affinity chromatography on Ni-NTA resin following a procedure similar to that described above. Briefly, cells were lysed by sonication and centrifuged at maximum speed for 30 mins at 4°C on a table-top centrifuge. A small fraction of the supernatant was collected as ‘Input’ and the remainder was incubated with 120 μL Ni-NTA resin, pre-equilibrated with wash buffer (25 mM HEPES pH 7.5, 20 mM imidazole, 0.1 mM DTT, 0.1 mM PMSF, 10% glycerol), for 1 hour on a rotating wheel at 4°C. The resin was washed twice with 2 ml in batch and five times with 2 ml on column before eluting with 250 μL of 500 mM imidazole in wash buffer. […]

[4] = test system: Mer2; assay: In vitro colocalization of Mre11 with Mer2 condensates; format: binding, S. cerevisiae
Procedure: Proteins were diluted to a 10× stock of their appropriate working concentrations in their respective storage buffers. […] Unless specified otherwise, all reactions contained 400 nM ^Alexa488Mre11 or 100 nM ^eGFPMRX. A typical 20 μL binding reaction contained 2 μL protein of 10× stock of indicated concentration, 10 μL of 2× reaction buffer, and 150 ng of supercoiled pUC19 (5.7 nM). Typical reactions were assembled at 30°C for 30 mins with gentle mixing every 5 mins, unless mentioned otherwise. 5 μL was dropped onto a microscope slide and covered with a coverslip. All images were captured on a Zeiss Axio Observer with a 100×/1.4 NA oil immersion objective except for images provided in Figure 4G which were captured on Leica Stellaris DMI 8 confocal microscope with a 63x/1.2 NA water immersion objective. Images were analyzed with ImageJ using a custom-made script. In brief, 129.24 × 129.24-μm (2048 × 2048-pixel) images were thresholded to mean intensity of the background plus three times the standard deviation of the background. Masked foci were counted and the intensity inside the focus mask was integrated. Data points represent averages of at least 8–10 images per sample. Data were analyzed using Graphpad Prism 10.4.0.

[5] = test system: mre11-ΔC49 and mre11-ΔIDR yeast strains; assay: MMS and CPT sensitivity assay (spotting of serial dilutions); format: cell-based, Saccharomyces cerevisiae SK1; conditions: ten-fold serial dilutions on YPD plates, two days at 30°C; for resistance of mre11-ΔC49 mutant: mre11-ΔC49 strain; for resistance of mre11-ΔIDR mutants: mre11-ΔIDR strain
Procedure: Following standard protocols, strains were patched on YPG plates, mated and streaked on YPD plates, and selected diploid colonies grown in liquid YPD at 30°C, 250 rpm, overnight. For meiotic synchronization, diploid cultures grown overnight in YPD were transferred to YPA (1% yeast extract, 2% peptone, 1% potassium acetate) at OD600 0.2 and grown for 12–14 hours at 30°C, 250 rpm. Once the cultures reached OD600 between 1.2–1.6, cells were washed once with prewarmed sterile water and immediately transferred to sporulation medium supplemented with amino acids (320 μL amino acid complementation media for 100 mL of sporulation media (SPM)) and were kept shaking at 30°C, 250 rpm during the entire meiotic time-course. For MMS and CPT (Sigma) sensitivity assays, serial dilutions of overnight cultures were spotted on freshly prepared YPD-MMS or YPD-CPT plates containing indicated percentage of MMS or CPT, respectively. Plates were grown for two days at 30°C. For immunofluorescence of vegetatively growing cells, overnight cultures were refreshed by diluting to OD600 0.2 and grown for 3–4 hours to reach OD600 1.2–1.4 before subjecting to MMS or MMS followed by 5% 1,6-hexanediol treatment. For 5% 1,6-hexanediol treatment, cells were first converted to spheroplasts and then treated with 5% 1,6-hexanediol for 4–5 minutes. Spheroplasts were then immediately washed, lysed, and fixed using protocol described below.

T1 sequence (Q12306 whole entry): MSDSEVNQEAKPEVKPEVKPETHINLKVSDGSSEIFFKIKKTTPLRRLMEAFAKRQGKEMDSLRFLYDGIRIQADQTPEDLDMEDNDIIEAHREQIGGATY

Compound	interaction of Mre11-C49 and Mer2 in pulldown (anti-MBP immunoblot) [3]	resistance of mre11-ΔC49 mutant [5]	resistance of mre11-ΔIDR mutants [5]	further results
ENDIIMVSTDE [wild-type SIM3 peptide]	–	–	–	backbone amide chemical shift perturbation of Smt3 [1]: induced strong backbone amide chemical shift to Smt3 residues I35, F36, F37, K38, I39 and R46
OCCCCCCO [1,6-hexanediol]	–	–	–	effect on MMS-induced Mre11 foci [2]: readily dissolved MMS-induced foci
Mre11-C49: Mre11 C-terminal residues (644–692) (SYGLLNGRKTKTKTRPAASTKTASRRGKGRASRTPKTDILGSLLAKKRK; also: MBP fusion, end not given here)	directly binds Mer2	–	–	localization of Mre11-C49 around Mer2 condensates ([4]; 800 nM mScarletMre11-C49 and 200 nM eGFPMer2, 30 min): forms a halo-like structure around Mer2 condensates; independent condensate formation of Mre11-C49 ([4]; 800 nM mScarletMre11-C49 without eGFPMer2): does not form condensates independently
CC[C@@]1(O)C(=O)OCc2c1cc1n(c2=O)Cc2cc3ccccc3nc2-1 [camptothecin]	–	resistant	as resistant to MMS or CPT as wild-type cells	–
Mre11-LLK: Mre11-C49 with L683, L686, and K690 mutated to alanine (SYGLLNGRKTKTKTRPAASTKTASRRGKGRASRTPKTDIAGSALAKARK; also: MBP fusion, end not given here)	strongly decreased the interaction between the two partners	–	–	–
COS(C)(=O)=O [MMS, methylmethanesulfonate]	–	resistant	as resistant to MMS or CPT as wild-type cells	–
